Tests used:
A549 cells = assay: Cell cycle analysis, propidium iodide flow cytometry, A549; type: cell-based, human; details: A549, 25 μM Pt(IV)-4C or 7.5 μM Pt(IV)-5C for 5 hours, analyzed 12 hours post treatment
Method: (§1) FIG. 10 is a series of plots from a cell cycle analysis of A549 cells (top) and DU145 cells (bottom) cells treated with Pt(IV)-4C and Pt(IV)-5C. A549 cells were treated for 5 hours with control (left), 25 μM Pt(IV)-4C (center), or 7.5 μM Pt(IV)-5C (right), and analyzed 12 hours post treatment. DU145 cells were treated for 1 hour with control (left), 10 μM Pt(IV)-4C (center), or 2.5 μM Pt(IV)-5C (right), and analyzed 12 hours post treatment. Data are representative of three independent experiments.
(§2) Cells (˜50 to 60% confluent in 60 mm dishes) were treated as indicated with the platinum compound. After treatment, the floating cells were collected, and both attached and floating cells were washed 2× with PBS. The cells were resuspended in fresh medium and incubated as indicated. The cells were harvested (both the floating and attached cells were collected), counted, and pelleted. The cells were then washed two times with 5 mL PBS, fixed by resuspending in 0.1 mL of PBS and 1 mL of ice-cold 95% ethanol with gentle vortexing. Fixed cells were stored at 4° C. until analysis. For analysis, fixed cells were washed once with 1-2 mL of PBS and centrifuged at 500×g for 5 minutes. The cell pellet was resuspended in 100 μL of a 1.0% Triton X-100 buffer solution, and 100 μL of a 1.0 mg/mL RNAse solution was added and allowed to stand at room temperature for 10-15 minutes. […]

DU145 cells [1] = assay: Cell cycle analysis, propidium iodide flow cytometry, DU145; type: cell-based, human; details: DU145, 10 μM Pt(IV)-4C or 2.5 μM Pt(IV)-5C for 1 hour, analyzed 12 hours post treatment
Method: as §1, §2

DU145 cells [2] = assay: Hoechst/PI staining, confocal microscopy, DU145; type: cell-based, human
Method: Cells (100,000 to 125,000) were seeded into 35 mm dishes and incubated for 48 hours at 37° C. The cells were treated with control, Pt(IV)-4C, or Pt(IV)-5C, and while in the dark, the cells were washed 2× with 1 mL PBS. After washing, 1 mL of a 2 μg/mL Hoechst 33342 and 10 μg/mL PI solution (in PBS) was added, and the cells were incubated for 15 minutes at room temperature. Images were acquired within 5 minutes with a Nikon A1R confocal laser scanning microscopy system (CLSM) mounted on a Nikon Eclipse Ti. At least three random areas on each dish were imaged.
Analysis of Hoechst (Ho) and PI staining by confocal microscopy also was performed to detect cell death. PI stains cells with membrane damage, whereas Ho stains both live and apoptotic cells (although apoptotic cells have more intense Ho fluorescence). […] Additionally, unlike A549, the PI positive cells in Pt(IV)-4C treated cells were higher than Pt(IV)-5C treated cells.

[3] = tested on: cleaved-PARP in DU145 cells; assay: Flow cytometry of cleaved-PARP, DU145; type: cell-based, human; details: DU145, 10 μM Pt(IV)-4C or 2.5 μM Pt(IV)-5C for 2 hours, analyzed seven hours post treatment
Method: FIG. 12 is a series of histograms indicating Pt(IV)-4C and Pt(IV)-5C-induced cleavage of PARP in A549 cells (top panels) and in DU145 cells (bottom). A549 cells were treated for 5 hours with control (left), 25 μM Pt(IV)-4C (center), or 7.5 μM Pt(IV)-5C (right), and analyzed 12 hours post treatment. DU145 cells were treated for 2 hours with control (left), 10 μM Pt(IV)-4C (center), or 2.5 μM Pt(IV)-5C (right), and analyzed seven hours post treatment. Data are representative of three independent experiments.
Cells (200,000 to 250,000) were seeded in 60 mm dishes and incubated at 37° C. in a humidified, 5% CO2 atmosphere for 2 days to reach ˜50-60% confluence. The cells were treated with the platinum complexes as indicated, the floating cells were collected, and both attached and floating cells were washed 2× with PBS. The cells were resuspended in fresh medium and incubated as indicated. After incubation, both the floating and attached cells were collected and fixed by incubation in 4% formaldehyde for 10 minutes at room temperature. The fixed cells were pelleted and permeabilized by incubation in 500 μL of ice-cold methanol at 4° C. for 10 minutes. The samples were stored at −20° C. until analysis. For analysis, the cells were pelleted and washed 2× with 1% BSA in PBS. […] After washing 2× with 1% BSA, the cells were resuspended in PBS and analyzed on a Becton Dickinson FACS Calibur. […]

[4] = Solubility in water and culture medium; type: physicochemical; details: stock DMSO solution diluted in the culture medium
Method: It should be noted that while the solubility of the Pt(IV) complexes in organic solvents were increased compared to their Pt(II) precursors, they were still poorly soluble in water. Thus, Pt(IV)-1C to Pt(IV)-3C were limited to a highest concentration of 100 μM. […] Testing of Pt(IV)4C therefore was limited to 25 μM.

| Compound | effect on the cell cycle / sub-G1 peak (A549 cells) | effect on the cell cycle / sub-G1 peak (DU145 cells [1]) | Hoechst and PI staining compared to control (DU145 cells [2]) | fold increase of cleaved-PARP [3] | concentration at which the complex precipitated out of solution [4] |
| --- | --- | --- | --- | --- | --- |
| CC(=O)[O][Pt]([Cl])([Cl])[O]C(C)=O.CCCCCOc1ccnc(-c2cc(OCCCCC)ccn2)c1 [Pt(IV)-5C, [Pt(IV)Cl2(OAc)2(4,4′-dipentoxy-2,2′-bipyridine)]] | decreased percentage of cells in the G1 phase and a corresponding increase in the sub-G1 peak | did not affect the cell cycle | more PI positive staining than Ho staining | ~2 fold | – |
| [Pt(IV)Cl2(OAc)2(4,4′-dibutoxy-2,2′-bipyridine)] [Pt(IV)-4C] | decreased percentage of cells in the G1 phase and a corresponding increase in the sub-G1 peak | did not affect the cell cycle | – | ~2 fold | ≥ 30 µM |

From patent US10316050B2, “PT (IV) complexes containing 4,4′-disubstituted-2,2′-bipyridyl and their use in cancer therapy” (THE BOARD OF REGENTS OF THE NEVADA SYSTEM OF HIGHER …, priority 2014, dated 2019)
